In patent publication US5514821A, “Ring-labeled retinoids and intermediates, and methods for their synthesis and use” (Ligand Pharmaceuticals Incorporated, priority 1994, dated 1996):

What was measured:
RARs and RXRs [1] = conditions: Heyman et al., Cell, 68:397 (1992); cited from earlier work
RARs and RXRs [2] = experiment: binding to baculovirus-derived RARs and RXRs (overall finding in words); conditions: RARα,β,γ and RXRα,β,γ; for binding to RARs and RXRs (in words): saturation binding
Excerpt: Exp. Stat. Bull., No. 155 (1987).
[…]. […] […].

CC1=C(/C=C/C(C)=C\C=C\C(C)=C\C(=O)O)C(C)(C)CCC1 [9-cis RA, 9-cis retinoic acid]
binding to and modulating gene expression via the RARs and RXRs (RARs and RXRs [1]): capable of binding to and modulating gene expression via the RARs and RXRs
activity on the retinoid receptors (in words, per Table 1) (RARs and RXRs [2]): active on all six known retinoid receptors
binding to RARs and RXRs (in words) (RARs and RXRs [2]; listed as 9-cis retinoic acid): binds to the RARs and RXRs with high affinity in a saturable and specific manner
binding to RARs and RXRs (in words) (RARs and RXRs [2]; listed as 9-cis-retinoic acid): effectively binds to all six receptors

CC1=C(/C=C/C(C)=C/C=C/C(C)=C/C(=O)O)C(C)(C)CCC1 [ATRA, all-trans retinoic acid]
activity on the retinoid receptors (in words, per Table 1) (RARs and RXRs [2]): only active on RARα,β,γ
binding to RARs and RXRs (in words) (RARs and RXRs [2]): only binds to the RARs
